Test results: US11161845B2, “Pyrrolopyridine-aniline compounds for treatment of dermal disorders” (Nflection Therapeutics, Inc., priority 2017, dated 2021)

What was measured:
[1] = Plasma LCMS compound levels, in vivo mouse model; set-up: species or system mice; details: for concentration at 1 h / concentration at 2 h: male, C57BL/6J, mouse, plasma; for concentration at 1 h: 1 h after final application; for concentration at 2 h: 2 h after final application; for Plasma LCMS Compound Levels: pre-dose (16 h)
Description: These mice were also shaved weekly.
Week 4 (Experiment end): Skin and blood were collected right before the last morning dose (N=3), 1 hour (N=3 mice), and 2 hours (N=3 mice) after final application; Blood draw: Plasma compound levels (LCMS); Skin biopsy: formalin fixed for histology and p-ERK staining, flash frozen for Western analysis and skin compound levels (LCMS)
Compound level analysis: Liquid chromatography with mass spectrometry method (LCMS) was used to detect compound levels in the skin and plasma. Tissues were preprocessed prior to LCMS as follows. Tissues were minced and incubated with collagenase and then finally homogenized using the stainless steel beads prior to LCMS analysis. Calibration curves and a QC test were run with each assay.

[2] = target: T1, MEK1 (Homo sapiens, UniProt Q02750); test: MEK inhibition assay, Biological Example 1a (33P-ATP, P81 filter-binding); details: read-out: Assay 1: biochemical MEK IC50
T1 construct: N-terminal His-tagged recombinant human full length protein; His (N); purchased Invitrogen PV3303; host or cells: insect cells
T1 sequence (Q02750 whole entry): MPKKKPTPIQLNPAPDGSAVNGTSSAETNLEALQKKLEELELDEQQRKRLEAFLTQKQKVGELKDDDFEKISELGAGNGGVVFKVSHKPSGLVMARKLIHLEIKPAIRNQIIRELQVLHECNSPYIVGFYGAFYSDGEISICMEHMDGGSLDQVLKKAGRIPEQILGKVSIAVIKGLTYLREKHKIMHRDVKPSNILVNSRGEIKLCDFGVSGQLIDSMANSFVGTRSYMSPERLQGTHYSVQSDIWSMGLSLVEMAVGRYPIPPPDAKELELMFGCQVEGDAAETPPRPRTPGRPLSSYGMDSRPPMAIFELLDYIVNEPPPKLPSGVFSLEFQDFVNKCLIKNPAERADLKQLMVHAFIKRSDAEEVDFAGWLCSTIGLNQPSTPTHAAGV
Description: MEK1 inhibitory activity of compounds were tested using the following procedure. […] Activated in vitro by RAF1. MW=49.2 kDa, GenBank Accession No. NP_002746. • Substrate: 5 μM ERK2 (K52R), • Kinase-dead mutant, (GenBank Accession No. NM_0011949), aa2-358 with N-terminal His6 tag, MW=43.63 kDa, expressed in E. coli.
The substrate was prepared in freshly prepared Reaction Buffer. The kinase was delivered into the substrate solution and gently mixed. Test compounds were delivered in 100% DMSO into the kinase reaction mixture by Acoustic technology (Echo550; nanoliter range), and incubated for 20 min at room temperature. ^33P-ATP was delivered into the reaction mixture to initiate the reaction. The reaction mixture was incubated for 2 hours at room temperature. Kinase activity was detected by P81 filter-binding method.

[3] = system: C57BL/6J mice; test: In vivo mouse model, skin and systemic toxicity of topical application (survival); details: for Survival Rates: twice daily 5 days per week, 10% BSA
Description: This study was designed to assess the skin toxicity and gross systemic toxicity of twice daily topical administration of a compound disclosed herein, as well as to evaluate the effect of metabolic lability on systemic toxicity.
Study Objective: The primary objective of this study was to characterize the skin and systemic toxicity of twice daily topical application of a compound disclosed herein, applied for 25 days in mice. Secondary objectives included determination of the 25-day skin and plasma compound levels of formulations containing three dosages of compound of Ex. 2 after application to 10% body surface area (BSA) murine skin; assessment of gross systemic toxicity from the application of compound of Ex. 2 after twice daily application to 10% BSA murine skin for 25 days; and determination of the correlation of skin and plasma compound levels with associated toxicity.
Mice: 8 week old male C57BL/6J mice (Jackson Laboratories) were shaved prior to start of study and weekly.
Compound application: Compounds were dissolved in a 50% DMSO/50% propyelene glycol vehicle. 0.125 mL of the following compounds were applied to the shaved dorsal back of mice (10% BSA) twice daily for 5 days per week for a total of 24 days. The second dose was applied 8 hours after first morning dose. All mice were shaved once per week at application site.
Oral trametinib was dissolved in 0.5% hydroxypropyl methylcellulose (Sigma-Aldrich) and 0.2% Tween-80 (Sigma-Aldrich) and administered by oral gavage (0.2 mL bolus or 10 mg/kg) once daily 5 days per week. These mice were also shaved weekly.
Weekly (Weeks 0-4): body weight measurements weekly, starting week 0 until experiment end; photographs of dorsal back and face of each mouse weekly, starting week 0 until experiment end; skin; and gross stool analysis assessed weekly for heme color, starting week 0 until experiment end.
The study planned for the mice to be sacrificed at Day 25.
Kaplan Meier curves were analyzed to determine progression to skin toxicity for each arm as compared with vehicle. T-test were used to compare compound levels at each dosage. Ki-67+ cells and p-ERK expression were also assessed on a cellular level via immunostaining. Western blots informed semi-quantitative changes in p-ERK expression.

[4] = S9 stability assay, human liver S9 fraction; format: in vitro ADME
Outline: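 Incubation at 37 °C of 1 μM compound with 2 mg/mL human liver S9 protein and 1 mM NADPH in 100 mM potassium phosphate pH 7.4 (1 mM EDTA, 3 mM MgCl2), sampled at 0, 15, 30, 60 min. Parent loss by LC/MS/MS gave t1/2 and CLint = 0.693/t1/2 × mL incubation/mg S9 protein.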

Cn1c(Nc2ccc(I)cc2F)c(C(=O)NOCCO)c2cccnc21 [Example 2, 2-((2-Fluoro-4-iodophenyl)amino)—N-(2-hydroxyethoxy)-1-methyl-1H-pyrrolo[2,3-b]pyridine-3-carboxamide]
concentration at 1 h ([1]; topical 0.1%): 174 ng/mL
concentration at 2 h ([1]; topical 0.1%): 37.9 ng/mL
concentration at 1 h ([1]; topical 0.5%): 1040 ng/mL
concentration at 2 h ([1]; topical 0.5%): 102 ng/mL
concentration at 1 h ([1]; topical 1%): 1020 ng/mL
concentration at 2 h ([1]; topical 1%): 262 ng/mL
Plasma LCMS Compound Levels ([1]; topical 0.1%): 1.18 ng/mL
Plasma LCMS Compound Levels ([1]; topical 0.5%): 4.78 ng/mL
Plasma LCMS Compound Levels ([1]; topical 1%): 24.98 ng/mL
IC50 [2]: 246 nM
Survival Rates ([3]; topical 0.1%, Day 0): 100%
Survival Rates ([3]; topical 0.1%, Day 3): 100%
Survival Rates ([3]; topical 0.1%, Day 6): 100%
Survival Rates ([3]; topical 0.1%, Day 9): 100%
Survival Rates ([3]; topical 0.1%, Day 12): 100%
Survival Rates ([3]; topical 0.1%, Day 15): 100%
Survival Rates ([3]; topical 0.1%, Day 18): 100%
Survival Rates ([3]; topical 0.1%, Day 21): 100%
Survival Rates ([3]; topical 0.1%, Day 24): 100%
Survival Rates ([3]; topical 0.1%, Day 25): 100%
Survival Rates ([3]; topical 0.5%, Day 0): 100%
Survival Rates ([3]; topical 0.5%, Day 3): 100%
Survival Rates ([3]; topical 0.5%, Day 6): 100%
Survival Rates ([3]; topical 0.5%, Day 9): 100%
Survival Rates ([3]; topical 0.5%, Day 12): 100%
Survival Rates ([3]; topical 0.5%, Day 15): 100%
Survival Rates ([3]; topical 0.5%, Day 18): 100%
Survival Rates ([3]; topical 0.5%, Day 21): 100%
Survival Rates ([3]; topical 0.5%, Day 24): 100%
Survival Rates ([3]; topical 0.5%, Day 25): 100%
Survival Rates ([3]; topical 1%, Day 0): 100%
Survival Rates ([3]; topical 1%, Day 3): 100%
Survival Rates ([3]; topical 1%, Day 6): 100%
Survival Rates ([3]; topical 1%, Day 9): 100%
Survival Rates ([3]; topical 1%, Day 12): 100%
Survival Rates ([3]; topical 1%, Day 15): 100%
Survival Rates ([3]; topical 1%, Day 18): 100%
Survival Rates ([3]; topical 1%, Day 21): 100%
Survival Rates ([3]; topical 1%, Day 24): 100%
Survival Rates ([3]; topical 1%, Day 25): 100%
systemic toxicity compared to topical Trametinib ([3]; topical application): less systemic toxicity
survival ([3]; topically applied 0.1%, 0.5%, and 1% formulations, 25 days): All mice survived
Assay 5: human liver S9 instrinsic clearance value ([4]; Table 2, 1 μM, 2 mg/mL S9 protein, NADPH): 21.45 μL/min/mg protein
microsomal CLint at 1 μM ([4]; pH 7.4, Table 1, human liver S9 fraction, read-out: CLint): 21.4 µL/min/mg
half-life at 1 μM ([4]; pH 7.4, Table 1, human liver S9 fraction, read-out: Liver S9 t1/2): 16 min
